Laboratory results from article PMC2705655, “The Nicotinic Acetylcholine Receptors of the Parasitic Nematode Ascaris suum: Formation of Two Distinct Drug Targets by Varying the Relative Expression Levels of Two Subunits” (PLoS Pathogens, 2009).

Tests used:
Experiment in all cases: two-electrode voltage clamp, Xenopus oocytes
Assay type in all cases: cell-based
[1] = target: T1, 5:1 Asu-unc-38:Asu-unc-29 receptor, putative (Asu-UNC-38)3(Asu-UNC-29)2, N-subtype nAChR (Ascaris suum, UniProt A7UFK6+A9XWS2)
T1 construct: full-length cDNAs of both subunits in pT7TS, cRNAs co-injected 5:1 into Xenopus oocytes; no tag
T1 sequence (A7UFK6 22-513): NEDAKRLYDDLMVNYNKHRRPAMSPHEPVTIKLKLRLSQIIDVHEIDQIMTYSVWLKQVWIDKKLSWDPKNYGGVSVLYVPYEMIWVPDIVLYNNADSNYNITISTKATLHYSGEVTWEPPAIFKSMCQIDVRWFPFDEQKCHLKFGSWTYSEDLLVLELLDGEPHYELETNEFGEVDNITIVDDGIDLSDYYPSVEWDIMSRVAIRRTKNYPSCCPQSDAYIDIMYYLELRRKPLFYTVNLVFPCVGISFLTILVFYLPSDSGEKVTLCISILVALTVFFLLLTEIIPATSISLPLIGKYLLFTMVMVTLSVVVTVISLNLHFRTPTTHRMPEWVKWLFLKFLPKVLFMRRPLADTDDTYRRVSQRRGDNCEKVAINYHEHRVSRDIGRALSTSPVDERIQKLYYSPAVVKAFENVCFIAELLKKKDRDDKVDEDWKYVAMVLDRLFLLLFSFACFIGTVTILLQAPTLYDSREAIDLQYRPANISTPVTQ
T1 sequence (A9XWS2 27-513): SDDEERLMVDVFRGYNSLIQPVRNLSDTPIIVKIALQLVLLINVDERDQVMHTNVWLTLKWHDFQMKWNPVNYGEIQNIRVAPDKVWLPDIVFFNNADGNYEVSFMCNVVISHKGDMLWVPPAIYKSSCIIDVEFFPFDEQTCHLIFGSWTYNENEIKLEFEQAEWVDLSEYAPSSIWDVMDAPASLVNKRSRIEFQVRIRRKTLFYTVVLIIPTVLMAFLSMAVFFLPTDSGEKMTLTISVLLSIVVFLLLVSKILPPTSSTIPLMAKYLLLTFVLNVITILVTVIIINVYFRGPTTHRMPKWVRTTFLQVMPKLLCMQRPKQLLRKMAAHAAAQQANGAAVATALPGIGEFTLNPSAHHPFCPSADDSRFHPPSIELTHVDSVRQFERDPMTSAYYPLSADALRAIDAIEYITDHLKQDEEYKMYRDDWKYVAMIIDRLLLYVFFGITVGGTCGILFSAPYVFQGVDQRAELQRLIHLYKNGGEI
Text: two-electrode voltage clamp, Xenopus oocytes on 5:1 Asu-unc-38:Asu-unc-29 receptor, putative (Asu-UNC-38)3(Asu-UNC-29)2, N-subtype nAChR

[2] = target: T2, 1:5 Asu-unc-38:Asu-unc-29 receptor, putative (Asu-UNC-38)2(Asu-UNC-29)3, L-subtype nAChR (Ascaris suum, UniProt A7UFK6+A9XWS2); conditions: -60 mV; cRNA ratio 1:5; response too small to quantify
T2 construct: full-length cDNAs of both subunits in pT7TS, cRNAs co-injected 1:5 into Xenopus oocytes; no tag
T2 sequence (A7UFK6 22-513): T1 sequence (A7UFK6 22-513)
T2 sequence (A9XWS2 27-513): T1 sequence (A9XWS2 27-513)

[3] = target: T1, 5:1 Asu-unc-38:Asu-unc-29 receptor, putative (Asu-UNC-38)3(Asu-UNC-29)2, N-subtype nAChR; conditions: -60 mV; cRNA ratio 5:1; response too small to quantify
[4] = target: T2, 1:5 Asu-unc-38:Asu-unc-29 receptor, putative (Asu-UNC-38)2(Asu-UNC-29)3, L-subtype nAChR
Text: two-electrode voltage clamp, Xenopus oocytes on 1:5 Asu-unc-38:Asu-unc-29 receptor, putative (Asu-UNC-38)2(Asu-UNC-29)3, L-subtype nAChR

Row | Structure (SMILES) | EC50 [1] [nM] | two-electrode voltage clamp, Xenopus oocytes [2] | two-electrode voltage clamp, Xenopus oocytes [3] | EC50 [4] [nM]
1 | CN1CCCN=C1/C=C/c1cccc(O)c1 [oxantel] | 4070 | but gave a negligible response to oxantel |  | 
2 | CN1CCCN=C1/C=C/c1cccs1 [pyrantel] |  |  | but gave very little response to pyrantel | 398
